Here are results for ten molecules from ChEMBL document CHEMBL4219122, “Synthesis and biological evaluation of histone deacetylase and DNA topoisomerase II-Targeted inhibitors” (Bioorg Med Chem, 2018).

Molecules are shown by their SMILES. Active and inactive are the calls of the source. The calls are words filed in the database; no cut-off is given here.

The test system of assay [1] is MCF7. As to the kind of experiment: Growth inhibition of human MCF7 cells after 48 hrs by sulforhodamine B-based colorimetric assay. Type of assay: functional, cell-based. Particulars: MCF7, 48 h; for GI50: read-out: GI50.
The target of assay [2] is T1, Protein deacetylase HDAC6 (Mus musculus, UniProt Q9Z2V5).
T1 sequence (Q9Z2V5 whole entry): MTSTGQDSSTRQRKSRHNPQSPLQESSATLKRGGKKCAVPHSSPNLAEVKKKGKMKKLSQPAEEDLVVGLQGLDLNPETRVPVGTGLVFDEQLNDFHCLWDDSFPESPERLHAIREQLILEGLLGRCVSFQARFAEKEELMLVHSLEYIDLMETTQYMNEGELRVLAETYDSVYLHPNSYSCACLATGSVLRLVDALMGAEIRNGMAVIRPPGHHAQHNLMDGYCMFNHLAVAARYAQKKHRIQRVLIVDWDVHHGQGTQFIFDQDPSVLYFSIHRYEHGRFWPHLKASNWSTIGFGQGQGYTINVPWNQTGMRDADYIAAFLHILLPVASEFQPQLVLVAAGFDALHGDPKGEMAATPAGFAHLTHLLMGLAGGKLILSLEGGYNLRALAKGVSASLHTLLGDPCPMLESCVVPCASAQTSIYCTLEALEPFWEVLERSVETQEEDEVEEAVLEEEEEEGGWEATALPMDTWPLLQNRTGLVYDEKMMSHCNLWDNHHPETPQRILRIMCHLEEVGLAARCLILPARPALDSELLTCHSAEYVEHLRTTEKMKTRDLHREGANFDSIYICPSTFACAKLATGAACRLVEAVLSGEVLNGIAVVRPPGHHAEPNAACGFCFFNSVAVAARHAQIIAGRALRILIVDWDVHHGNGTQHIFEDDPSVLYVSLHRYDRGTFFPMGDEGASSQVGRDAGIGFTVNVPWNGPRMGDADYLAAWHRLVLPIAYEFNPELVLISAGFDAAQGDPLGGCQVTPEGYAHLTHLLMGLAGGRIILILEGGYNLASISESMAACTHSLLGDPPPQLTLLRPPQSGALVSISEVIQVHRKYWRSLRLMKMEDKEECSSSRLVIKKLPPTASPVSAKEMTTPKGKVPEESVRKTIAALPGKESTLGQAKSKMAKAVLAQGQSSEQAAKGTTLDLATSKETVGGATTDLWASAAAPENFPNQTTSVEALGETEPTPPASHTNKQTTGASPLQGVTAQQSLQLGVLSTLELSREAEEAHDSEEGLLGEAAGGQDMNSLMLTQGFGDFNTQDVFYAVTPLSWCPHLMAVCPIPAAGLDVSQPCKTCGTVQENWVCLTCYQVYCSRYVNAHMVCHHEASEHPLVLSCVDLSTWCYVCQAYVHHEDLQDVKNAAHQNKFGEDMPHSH
As to the kind of experiment: Inhibition of recombinant mouse HDAC6 expressed in HEK293T cells co-expressing mouse HDA2 using Ac-KGLGK(Ac)-MCA as substrate after 30 mins in presence of DTT by fluorescence assay.

The target in assay [3] is T2, Histone deacetylase 1 (Homo sapiens, UniProt Q13547). As to the kind of experiment: Inhibition of recombinant human HDAC1 expressed in HEK293T cells using Ac-KGLGK(Ac)-MCA as substrate after 30 mins in presence of DTT by fluorescence assay.
T2 sequence (Q13547 whole entry): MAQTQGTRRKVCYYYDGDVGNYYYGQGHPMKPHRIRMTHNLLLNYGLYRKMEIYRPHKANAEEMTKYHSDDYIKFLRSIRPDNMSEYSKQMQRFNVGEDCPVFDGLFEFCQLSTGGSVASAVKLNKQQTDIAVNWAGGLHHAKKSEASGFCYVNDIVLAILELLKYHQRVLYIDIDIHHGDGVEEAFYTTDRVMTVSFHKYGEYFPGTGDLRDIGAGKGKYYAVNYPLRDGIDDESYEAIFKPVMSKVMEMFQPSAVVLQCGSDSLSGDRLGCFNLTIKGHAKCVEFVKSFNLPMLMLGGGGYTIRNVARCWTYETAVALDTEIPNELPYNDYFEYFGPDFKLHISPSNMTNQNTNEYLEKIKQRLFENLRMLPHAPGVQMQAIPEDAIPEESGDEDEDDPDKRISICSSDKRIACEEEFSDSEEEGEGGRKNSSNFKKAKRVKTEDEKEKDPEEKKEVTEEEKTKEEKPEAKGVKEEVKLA
In assay [4] the test system is DU-145. As to the kind of experiment: Growth inhibition of human DU145 cells after 48 hrs by sulforhodamine B-based colorimetric assay. Type of assay: functional, cell-based. Conditions: DU-145, 48 h; for GI50: read-out: GI50.
Assay [5] concerns HCT-116. As to the kind of experiment: Growth inhibition of human HCT116 cells after 48 hrs by sulforhodamine B-based colorimetric assay. Conditions: HCT-116, 48 h; for GI50: read-out: GI50. Type of assay: functional, cell-based.
Assay [6] has as its target T3, DNA topoisomerase 2-alpha (Homo sapiens, UniProt P11388). As to the kind of experiment: Inhibition of human placenta topoisomerase 2alpha assessed as reduction in pBR322 supercoiled DNA relaxation after 30 mins by ethidium bromide staining based agarose gel electrophoresis.
The target of assay [7] is T2, Histone deacetylase 1. As to the kind of experiment: Inhibition of recombinant human HDAC1 expressed in HEK293T cells at 10 uM using Ac-KGLGK(Ac)-MCA as substrate after 30 mins in presence of DTT by fluorescence assay.
The target of assay [8] is T3, DNA topoisomerase 2-alpha. As to the kind of experiment: Inhibition of human topoisomerase-2 alpha-mediated kinetoplast DNA decatenation at 200 uM after 30 mins by ethidium bromide staining based agarose gel electrophoresis.

One may read the GI50 as the concentration at which growth is held to half of that of the control. In general, IC50 refers to the midpoint of a concentration-inhibition curve.

T3 sequence (P11388 whole entry): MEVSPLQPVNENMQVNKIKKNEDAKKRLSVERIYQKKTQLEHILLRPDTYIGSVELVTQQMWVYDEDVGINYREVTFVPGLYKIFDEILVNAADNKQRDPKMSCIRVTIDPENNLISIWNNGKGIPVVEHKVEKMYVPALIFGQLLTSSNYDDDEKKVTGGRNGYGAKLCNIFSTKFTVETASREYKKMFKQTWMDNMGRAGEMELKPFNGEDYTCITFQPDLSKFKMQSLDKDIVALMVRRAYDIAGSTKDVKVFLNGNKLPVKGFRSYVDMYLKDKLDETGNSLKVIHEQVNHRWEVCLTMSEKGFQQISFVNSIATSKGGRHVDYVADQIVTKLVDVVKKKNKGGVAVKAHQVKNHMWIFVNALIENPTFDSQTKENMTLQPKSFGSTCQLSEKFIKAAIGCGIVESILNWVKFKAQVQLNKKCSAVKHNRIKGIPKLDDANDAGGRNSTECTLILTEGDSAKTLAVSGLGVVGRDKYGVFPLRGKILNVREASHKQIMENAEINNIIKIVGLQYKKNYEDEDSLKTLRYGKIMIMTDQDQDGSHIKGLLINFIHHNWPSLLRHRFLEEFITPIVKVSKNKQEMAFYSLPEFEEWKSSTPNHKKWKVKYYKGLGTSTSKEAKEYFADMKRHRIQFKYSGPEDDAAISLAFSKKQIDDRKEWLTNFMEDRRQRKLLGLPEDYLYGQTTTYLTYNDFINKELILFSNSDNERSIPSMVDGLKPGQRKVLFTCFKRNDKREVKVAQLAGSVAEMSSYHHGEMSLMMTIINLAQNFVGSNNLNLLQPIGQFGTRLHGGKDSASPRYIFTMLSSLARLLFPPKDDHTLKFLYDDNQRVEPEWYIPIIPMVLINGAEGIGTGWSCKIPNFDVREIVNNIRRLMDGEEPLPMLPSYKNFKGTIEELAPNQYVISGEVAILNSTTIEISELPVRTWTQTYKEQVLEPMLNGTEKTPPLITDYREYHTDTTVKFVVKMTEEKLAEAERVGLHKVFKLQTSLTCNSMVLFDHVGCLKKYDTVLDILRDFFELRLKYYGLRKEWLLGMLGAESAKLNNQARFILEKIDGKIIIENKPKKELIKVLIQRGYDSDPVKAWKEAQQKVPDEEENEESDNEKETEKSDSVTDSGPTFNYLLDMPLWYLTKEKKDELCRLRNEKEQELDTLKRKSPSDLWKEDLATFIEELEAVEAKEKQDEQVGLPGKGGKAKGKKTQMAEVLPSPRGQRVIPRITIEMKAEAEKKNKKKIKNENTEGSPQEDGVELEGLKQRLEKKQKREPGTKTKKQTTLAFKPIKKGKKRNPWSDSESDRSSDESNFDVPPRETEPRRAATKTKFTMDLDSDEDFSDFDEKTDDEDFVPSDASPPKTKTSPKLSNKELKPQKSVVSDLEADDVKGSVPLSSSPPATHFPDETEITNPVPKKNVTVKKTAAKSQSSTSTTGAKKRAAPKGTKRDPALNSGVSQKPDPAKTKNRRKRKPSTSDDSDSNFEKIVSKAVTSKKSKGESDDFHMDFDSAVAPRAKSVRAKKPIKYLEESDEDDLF

As for `Cc1cn([C@H]2C[C@H](C3(c4ccc(NC(=O)CCCCC(=O)NO)cc4)SCCCS3)[C@@H](CO[Si](C)(C)C(C)(C)C)O2)c(=O)[nH]c1=O`, the GI50 in assay [1] stood at 5.5 µM; in assay [4], 14.8 µM; in assay [5] it was 26.3 µM. Also, the values for the IC50 in assay [2] and in assay [3] were 0.56 µM and 2.5 µM, respectively.
As for `CC(C)(C)[Si](C)(C)OC[C@H]1OC(=O)C[C@@H]1C1(c2ccccc2)SCCCS1`, the IC50 in assay [6] is 26.1 µM.
With `COc1ccc(C2([C@H]3CC(=O)O[C@@H]3CO[Si](C)(C)C(C)(C)C)SCCCS2)cc1OC`, in assay [6], the IC50 was 55.3 µM.
Take `COc1ccc(C2([C@H]3C[C@H](n4cc(C)c(=O)[nH]c4=O)O[C@@H]3CO[Si](C)(C)C(C)(C)C)SCCCS2)cc1OC`: the GI50 in assay [1] came to 3.31 µM; in assay [4], 3.72 µM; in assay [5], 3.63 µM. Moreover, the IC50 in assay [2] was > 10 µM; in assay [3], > 10 µM; in assay [6] it was 19.1 µM.
Turning to `CC(/C=C/C(=O)NO)=C\C(C)C(=O)c1ccc(C2([C@H]3CC(=O)O[C@@H]3CO[Si](C)(C)C(C)(C)C)SCCCS2)cc1` (stereo not given in full), the IC50 in assay [3] amounted to 1.2 µM; in assay [6] it was 3 µM.
In the case of `Cc1cn([C@@H]2C[C@H](C3(c4ccc(NC(=O)CCCCC(=O)NO)cc4)SCCCS3)[C@@H](CO[Si](C)(C)C(C)(C)C)O2)c(=O)[nH]c1=O`, the GI50 turned out to be 5.37 µM in assay [1], 49 µM in assay [4] and 26.3 µM in assay [5]. The IC50 in assay [2] stood at 0.59 µM; in assay [3] it was 2.8 µM.
On to `Cc1cn([C@H]2C[C@H](C3(c4ccc(NC(=O)CCCCCCC(=O)O)cc4)SCCCS3)[C@@H](CO[Si](C)(C)C(C)(C)C)O2)c(=O)[nH]c1=O`, for which the figures for the IC50 in assay [1], in assay [4] and in assay [5] were 12.3 µM, 15.5 µM and 12.3 µM, respectively. Also, the inhibition entry in assay [7] was “inactive”.
For the molecule `Cc1cn([C@@H]2C[C@H](C3(c4ccc(NC(=O)CCCCCC(=O)NO)cc4)SCCCS3)[C@@H](CO[Si](C)(C)C(C)(C)C)O2)c(=O)[nH]c1=O`, the GI50 in assay [1] came out at 17.8 µM; in assay [4] it was 28.8 µM; in assay [5], 14.8 µM. Further, the IC50 in assay [2] is 0.081 µM; in assay [3], 0.59 µM.
For the molecule `COc1cc([C@@H]2c3cc4c(cc3[C@@H](O[C@@H]3O[C@@H]5CO[C@@H](C)O[C@H]5[C@H](O)[C@H]3O)[C@H]3COC(=O)[C@H]23)OCO4)cc(OC)c1O`, the inhibition entry in assay [8] is “Active”.
With `Cc1cn([C@H]2C[C@H](C3(c4ccc(NC(=O)CCCCCC(=O)NO)cc4)SCCCS3)[C@@H](CO[Si](C)(C)C(C)(C)C)O2)c(=O)[nH]c1=O`, the figures for the GI50 in assay [1], in assay [4] and in assay [5] were 15.4 µM, 20.9 µM and 17.4 µM, respectively. In addition, the IC50 in assay [2] is 0.11 µM; in assay [3], 0.9 µM.
